ChEMBL document CHEMBL4308908, “Lamellarin-inspired potent topoisomerase I inhibitors with the unprecedented benzo[g][1]benzopyrano[4,3-b]indol-6(13H)-one scaffold” (Bioorg Med Chem, 2019)
Calls of active or inactive are those of the source. The calls are words filed in the database; no cut-off is given here.

Tests used:
KM12 = assay: Antiproliferative activity against human KM12 cells after 48 hrs by SRB assay; assay type: functional; conditions: KM12, 48 h
St-4 = assay: Antiproliferative activity against human St-4 cells after 48 hrs by SRB assay; assay type: functional; conditions: St-4, 48 h
[1] = Antiproliferative activity against human HBC5 cells after 48 hrs by SRB assay; assay type: functional; conditions: HBC5, 48 h
[2] = biological target: T1, DNA topoisomerase I (Bos taurus) (UniProt F1MN93); assay: Inhibition of calf thymus DNA topoisomerase 1 assessed as reduction in enzyme-mediated relaxation of supercoiled pBR322 plasmid DNA at 10 uM after 30 mins by ethidium bromide staining-based agarose gel electrophoresis
T1 sequence (whole entry): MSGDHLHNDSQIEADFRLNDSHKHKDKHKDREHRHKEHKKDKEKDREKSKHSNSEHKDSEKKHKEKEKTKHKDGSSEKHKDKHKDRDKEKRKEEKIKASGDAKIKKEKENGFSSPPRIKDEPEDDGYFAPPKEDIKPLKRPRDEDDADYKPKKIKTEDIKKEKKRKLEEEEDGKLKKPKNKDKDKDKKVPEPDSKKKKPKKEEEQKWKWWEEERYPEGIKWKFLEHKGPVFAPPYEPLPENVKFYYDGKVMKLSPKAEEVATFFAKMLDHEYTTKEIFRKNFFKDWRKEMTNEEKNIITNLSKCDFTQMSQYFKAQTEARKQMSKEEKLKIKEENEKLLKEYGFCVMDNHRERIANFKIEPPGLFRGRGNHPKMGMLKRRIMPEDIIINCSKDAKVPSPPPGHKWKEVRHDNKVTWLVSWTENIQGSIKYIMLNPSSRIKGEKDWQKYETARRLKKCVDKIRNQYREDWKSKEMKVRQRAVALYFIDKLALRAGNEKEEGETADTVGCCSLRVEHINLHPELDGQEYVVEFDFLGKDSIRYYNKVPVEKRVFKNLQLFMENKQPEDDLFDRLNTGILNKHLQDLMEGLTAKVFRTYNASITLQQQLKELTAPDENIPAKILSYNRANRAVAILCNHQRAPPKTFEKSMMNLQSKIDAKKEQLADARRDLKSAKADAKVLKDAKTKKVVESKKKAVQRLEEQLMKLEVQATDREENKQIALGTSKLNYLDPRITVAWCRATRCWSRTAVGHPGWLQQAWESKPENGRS

ACHN = assay: Antiproliferative activity against human ACHN cells after 48 hrs by SRB assay; assay type: functional
LOX IMVI = assay: Antiproliferative activity against human LOXIMVI cells after 48 hrs by SRB assay; assay type: functional
SF-295 = assay: Antiproliferative activity against human SF295 cells after 48 hrs by SRB assay; assay type: functional; conditions: SF-295, 48 h
NCI-H522 = assay: Antiproliferative activity against human NCI-H522 cells after 48 hrs by SRB assay; assay type: functional; conditions: NCI-H522, 48 h
[3] = biological target: T1, DNA topoisomerase I (Bos taurus); assay: Inhibition of calf thymus DNA topoisomerase 1 assessed as reduction in enzyme-mediated relaxation of supercoiled pBR322 plasmid DNA at 10 uM after 30 mins by agarose gel electrophoresis
MCF7 = assay: Antiproliferative activity against human MCF7 cells after 48 hrs by SRB assay; assay type: functional; conditions: MCF7, 48 h
DMS-273 = assay: Antiproliferative activity against human DMS273 cells after 48 hrs by SRB assay; assay type: functional; conditions: DMS-273, 48 h
SF-268 = assay: Antiproliferative activity against human SF268 cells after 48 hrs by SRB assay; assay type: functional; conditions: SF-268, 48 h
NCI-H226 = assay: Antiproliferative activity against human NCI-H226 cells after 48 hrs by SRB assay; assay type: functional; conditions: NCI-H226, 48 h
NCI-H23 = assay: Antiproliferative activity against human NCI-H23 cells after 48 hrs by SRB assay; assay type: functional; conditions: NCI-H23, 48 h
RXF 631 = assay: Antiproliferative activity against human RXF631L cells after 48 hrs by SRB assay; assay type: functional; conditions: RXF 631, 48 h
MKN-7 = assay: Antiproliferative activity against human MKN7 cells after 48 hrs by SRB assay; assay type: functional; conditions: MKN-7, 48 h
A549 = assay: Antiproliferative activity against human A549 cells after 48 hrs by SRB assay; assay type: functional; conditions: A549, 48 h
MKN-74 = assay: Antiproliferative activity against human MKN74 cells after 48 hrs by SRB assay; assay type: functional; conditions: MKN-74, 48 h
[4] = Antiproliferative activity against human HBC4 cells after 48 hrs by SRB assay; assay type: functional; conditions: HBC4, 48 h
U-251 = assay: Antiproliferative activity against human U251 cells after 48 hrs by SRB assay; assay type: functional; conditions: U-251, 48 h
MDA-MB-231 = assay: Antiproliferative activity against human MDA-MB-231 cells after 48 hrs by SRB assay; assay type: functional; conditions: MDA-MB-231, 48 h
OVCAR-5 = assay: Antiproliferative activity against human OVCAR5 cells after 48 hrs by SRB assay; assay type: functional; conditions: OVCAR-5, 48 h
DMS-114 = assay: Antiproliferative activity against human DMS114 cells after 48 hrs by SRB assay; assay type: functional; conditions: DMS-114, 48 h
[5] = Antiproliferative activity against human BSY1 cells after 48 hrs by SRB assay; assay type: functional; conditions: BSY-1, 48 h
SK-OV-3 = assay: Antiproliferative activity against human SKOV3 cells after 48 hrs by SRB assay; assay type: functional; conditions: SK-OV-3, 48 h
MKN-28 = assay: Antiproliferative activity against human MKN28 cells after 48 hrs by SRB assay; assay type: functional; conditions: MKN-28, 48 h
NCI-H460 = assay: Antiproliferative activity against human NCI-H460 cells after 48 hrs by SRB assay; assay type: functional; conditions: NCI-H460, 48 h
MKN-45 = assay: Antiproliferative activity against human MKN45 cells after 48 hrs by SRB assay; assay type: functional; conditions: MKN-45, 48 h
PC-3 = assay: Antiproliferative activity against human PC3 cells after 48 hrs by SRB assay; assay type: functional; conditions: PC-3, 48 h
MKN-1 = assay: Antiproliferative activity against human MKN1 cells after 48 hrs by SRB assay; assay type: functional; conditions: MKN-1, 48 h
DU-145 = assay: Antiproliferative activity against human DU145 cells after 48 hrs by SRB assay; assay type: functional; conditions: DU-145, 48 h
SF-539 = assay: Antiproliferative activity against human SF539 cells after 48 hrs by SRB assay; assay type: functional; conditions: SF-539, 48 h
HCC 2998 = assay: Antiproliferative activity against human HCC2998 cells after 48 hrs by SRB assay; assay type: functional; conditions: HCC 2998, 48 h
HT-29 = assay: Antiproliferative activity against human HT-29 cells after 48 hrs by SRB assay; assay type: functional; conditions: HT-29, 48 h
OVCAR-4 = assay: Antiproliferative activity against human OVCAR4 cells after 48 hrs by SRB assay; assay type: functional; conditions: OVCAR-4, 48 h
HCT-116 = assay: Antiproliferative activity against human HCT116 cells after 48 hrs by SRB assay; assay type: functional; conditions: HCT-116, 48 h
SNB-78 = assay: Antiproliferative activity against human SNB78 cells after 48 hrs by SRB assay; assay type: functional; conditions: SNB-78, 48 h
HCT-15 = assay: Antiproliferative activity against human HCT15 cells after 48 hrs by SRB assay; assay type: functional; conditions: HCT-15, 48 h
SNB-75 = assay: Antiproliferative activity against human SNB75 cells after 48 hrs by SRB assay; assay type: functional; conditions: SNB-75, 48 h
OVCAR-8 = assay: Antiproliferative activity against human OVCAR8 cells after 48 hrs by SRB assay; assay type: functional; conditions: OVCAR-8, 48 h
OVCAR-3 = assay: Antiproliferative activity against human OVCAR3 cells after 48 hrs by SRB assay; assay type: functional; conditions: OVCAR-3, 48 h

## COc1cc2c(ccc3c4c(=O)oc5cc(O)c(OC)cc5c4n(C)c23)cc1O
KM12
  GI50: 46.8 nM
St-4
  GI50: 10 µM
[1]
  GI50: 95.5 nM
[2]
  inhibition: Active
ACHN; read-out: GI50
  GI50: < 1 nM
ACHN; read-out: pGI50 (converted)
  GI50: 1 nM
LOX IMVI; read-out: GI50
  GI50: 2.6 nM
LOX IMVI; read-out: pGI50 (converted)
  GI50: 2.57 nM
SF-295
  GI50: 4.57 nM
NCI-H522; read-out: GI50
  GI50: 1.8 nM
NCI-H522; read-out: pGI50 (converted)
  GI50: 1.82 nM
[3]
  inhibition: Active
MCF7; read-out: GI50
  GI50: 9.6 nM
MCF7; read-out: pGI50 (converted)
  GI50: 9.55 nM
DMS-273
  GI50: 2.04 nM
SF-268
  GI50: 2.19 nM
NCI-H226
  GI50: 89.1 nM
NCI-H23
  GI50: 4.57 nM
RXF 631
  GI50: 4.68 µM
MKN-7
  GI50: 45.7 nM
A549
  GI50: 4.17 nM
MKN-74
  GI50: 52.5 nM
[4]
  GI50: 13.5 nM
U-251; read-out: GI50
  GI50: 1.3 nM
U-251; read-out: pGI50 (converted)
  GI50: 1.32 nM
MDA-MB-231
  GI50: 115 nM
OVCAR-5
  GI50: 79.4 nM
DMS-114
  GI50: 3.89 nM
[5]
  GI50: 33.9 nM
SK-OV-3; read-out: GI50
  GI50: 9.4 nM
SK-OV-3; read-out: pGI50 (converted)
  GI50: 9.33 nM
MKN-28; read-out: GI50
  GI50: 33 nM
MKN-28; read-out: pGI50 (converted)
  GI50: 33.1 nM
NCI-H460
  GI50: 2.14 nM
MKN-45
  GI50: 32.4 nM
PC-3
  GI50: 132 nM
MKN-1
  GI50: 37.1 nM
DU-145; read-out: GI50
  GI50: 2.5 nM
DU-145; read-out: pGI50 (converted)
  GI50: 2.51 nM
SF-539
  GI50: 2.82 nM
HCC 2998
  GI50: 39.8 nM
HT-29
  GI50: 3.89 µM
OVCAR-4
  GI50: 26.9 nM
HCT-116; read-out: GI50
  GI50: 8.8 nM
HCT-116; read-out: pGI50 (converted)
  GI50: 8.91 nM
SNB-78
  GI50: 200 nM
HCT-15
  GI50: 162 nM
SNB-75
  GI50: 8.13 nM
OVCAR-8
  GI50: 20.4 nM
OVCAR-3
  GI50: 39.8 nM
